Among the data in patent US20050143430A1, “Catechol bioisosteres” (priority 2002, published 2005) are IC50 values, retold here.

SMILES strings stand for the structures.

In this test the target is Insulin-like Growth Factor 1 Receptor (IGF-1R) (Homo sapiens, UniProt P08069). The test can be described thus: IGF-1R inhibition in vitro. The format is biochemical.
Chain of Insulin-like Growth Factor 1 Receptor (IGF-1R) (P08069 31-1367, species assumed): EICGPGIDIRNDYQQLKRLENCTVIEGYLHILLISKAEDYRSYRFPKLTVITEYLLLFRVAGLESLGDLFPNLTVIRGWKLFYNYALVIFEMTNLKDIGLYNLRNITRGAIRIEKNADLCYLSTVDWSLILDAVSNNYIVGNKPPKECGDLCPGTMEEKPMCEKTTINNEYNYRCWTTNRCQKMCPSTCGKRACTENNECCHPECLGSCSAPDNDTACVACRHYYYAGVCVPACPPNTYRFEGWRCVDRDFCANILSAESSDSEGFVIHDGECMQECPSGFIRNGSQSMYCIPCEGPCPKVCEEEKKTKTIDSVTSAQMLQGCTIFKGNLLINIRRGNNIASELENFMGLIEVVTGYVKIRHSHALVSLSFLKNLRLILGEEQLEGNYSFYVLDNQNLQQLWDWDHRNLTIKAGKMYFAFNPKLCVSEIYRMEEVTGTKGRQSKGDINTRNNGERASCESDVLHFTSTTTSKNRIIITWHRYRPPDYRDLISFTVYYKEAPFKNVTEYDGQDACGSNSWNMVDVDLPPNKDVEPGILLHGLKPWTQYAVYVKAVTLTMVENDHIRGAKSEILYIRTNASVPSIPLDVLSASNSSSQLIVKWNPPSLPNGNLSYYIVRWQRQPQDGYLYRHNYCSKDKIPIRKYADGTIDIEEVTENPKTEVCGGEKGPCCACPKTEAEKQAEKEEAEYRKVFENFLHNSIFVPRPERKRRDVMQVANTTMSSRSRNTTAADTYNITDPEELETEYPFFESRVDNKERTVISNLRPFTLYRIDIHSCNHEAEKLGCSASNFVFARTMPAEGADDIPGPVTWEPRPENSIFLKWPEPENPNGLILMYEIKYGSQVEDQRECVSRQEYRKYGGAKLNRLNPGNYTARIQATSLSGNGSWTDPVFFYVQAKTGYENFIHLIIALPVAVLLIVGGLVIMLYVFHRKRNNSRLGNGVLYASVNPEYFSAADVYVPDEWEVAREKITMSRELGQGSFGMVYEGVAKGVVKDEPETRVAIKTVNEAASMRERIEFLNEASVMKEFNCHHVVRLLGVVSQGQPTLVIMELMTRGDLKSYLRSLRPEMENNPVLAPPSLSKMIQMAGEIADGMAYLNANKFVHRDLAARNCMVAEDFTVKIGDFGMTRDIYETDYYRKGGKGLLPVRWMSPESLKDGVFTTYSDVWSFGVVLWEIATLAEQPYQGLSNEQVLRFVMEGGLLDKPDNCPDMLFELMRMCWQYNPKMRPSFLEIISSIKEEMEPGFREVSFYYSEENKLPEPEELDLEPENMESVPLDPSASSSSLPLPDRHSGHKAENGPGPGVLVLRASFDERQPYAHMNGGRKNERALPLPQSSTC
`N#C/C(=C\c1ccc2[nH]c(=O)oc2c1)C(=O)c1ccc2[nH]c(=O)oc2c1` [GB18]: the IC50 (in general, the concentration at which inhibition is half-maximal) worked out at 4200 nM. In other words, the single-digit micromolar range. Regarding `N#CC(=Cc1ccc(O)c(O)c1)C(=O)c1ccc2[nH]c(=O)oc2c1` (single isomer, unassigned) [GB 16-10], inhibition was half-maximal at 1200 nM (IC50).

Compound `N#CC(=Cc1ccc(O)c(O)c1)C(=O)c1ccc2[nH]c(=O)oc2c1` (single isomer, unassigned) [GB16-11] displayed an IC50 of 200 nM. As for `N#C/C(=C\c1ccc2oc(=O)[nH]c2c1)C(=O)c1ccc2[nH]c(=O)oc2c1` [GB 17], the figure is 12000 nM; as for `N#C/C(=C\c1ccc(O)c(O)c1)C(=O)c1ccc(O)c(O)c1` [AG 538, reference compound], 60 nM; as for `N#C/C(=C\c1ccc2oc(=O)[nH]c2c1)C(=O)c1ccc(O)c(O)c1` [AGL 2263], 70 nM.
